Data: patent US7982049B2, “α-form or β-form crystal of acetanilide derivative” (Astellas Pharma Inc., priority 2001, dated 2011)
Entries after “also recorded” stand apart in the source; their conditions may differ. Structures can show the parent of a compound that is named as a salt.

How the values were obtained:
[1] = Hygroscopicity test (VTI SGA-100); type: physicochemical; details: for hygroscopicity (in words): 5 to 95% of relative humidity; for relative humidity from which an increase in the weight is observed: measurement interval 5% of relative humidity; for stability of the crystal (in words): judged with the hygroscopicity result
Method: The hygroscopicity was measured using VTI SGA-100 under the following conditions. Temperature: 25° C., measurement range: from 5 to 95% of relative humidity, measurement interval: 5% of relative humidity.

Male kk mice = experiment: Hypoglycemic test in kk mice (insulin resistance model: obesity and hyperglycemia); type: in vivo; details: oral, once daily for 7 days, blood glucose 15 to 18 hours after final administration, n=6
Method: Hypoglycemic Test in kk Mice (Insulin Resistance Model: Obesity and Hyperglycemia) Male kk mice (blood glucose level: 200 mg/dL or more) were measured for blood glucose level under feeding and then randomly classified into groups. The drug to be tested was compulsorily orally administered once daily for 7 days, and the blood glucose level after 15 to 18 hours from the final administration was compared with that before the administration (n=6). The blood was collected from a tail vein of the mouse using a glass capillary (previously treated with heparin), a protein was removed therefrom, and the amount of glucose in the supernatant (mg/dL) was measured by colorimetric determination by means of the glucose oxidase method. Further, a dose by which the blood glucose level was reduced by 30% as compared with that before the administration of the drug to be tested was expressed as an ED30 value.

[2] = Solubility in recrystallization solvent; type: physicochemical; details: 37% to 50% ethanol aqueous solution, as compared with the α-form crystal
[3] = 25° C., listed as (R)-2-(2-aminothiazol-1-4-yl)-4′-[2-[(2-hydroxy-2-phenylethyl)amino]ethyl]-aceta, dihydrochloride

hygroscopicity (in words) ([1]; 25° C., dihydrochloride) | hygroscopicity (in words) [1, 3] | hygroscopicity (in words) ([1]; 25° C., listed as (R)-2-(2-aminothiazol-4-yl)-4′-[2-[(2-hydroxy-2-phenylethyl)amino]ethyl]-acetani, dihydrochloride) | hygroscopicity (in words) ([1]; 25° C., listed as dihydrochloride, dihydrochloride) | moisture held ([1]; 25° C., at a relative humidity of 90%) | relative humidity from which an increase in the weight is observed ([1]; 25° C., dihydrochloride) [%] | relative humidity from which an increase in the weight is observed [1, 3] | stability of the crystal (in words) ([1]; dihydrochloride) | stability of the crystal (in words) ([1]; listed as (R)-2-(2-aminothiazol-4-yl)-4′-[2-[(2-hydroxy-2-phenylethyl)amino]ethyl]-acetani, dihydrochloride) | stability of the crystal (in words) ([1]; listed as dihydrochloride, dihydrochloride) | moisture-holding amount ([1]; 25° C., over the entire range of relative humidity from 5% to 95%) | relative humidity from which an increase in the weight is observed ([1]; 25° C.) | moisture held ([1]; 25° C., relative humidity not stated for the value (measurement range 5 to 95%)) | solubility in a recrystallization solvent [2] | SMILES | hygroscopicity (in words) ([1]; 25° C.) | stability of the crystal (in words) [1] | ED30 value (dose by which the blood glucose level was reduced by 30% as compared with that before the administration) (Male kk mice)
strongly hygroscopic | strong hygroscopicity | strong hygroscopicity | strong hygroscopicity | about 14% | 80 | about 80% | unstable | unstable | unstable | – | – | – | – | Nc1nc(CC(=O)Nc2ccc(CCNC[C@H](O)c3ccccc3)cc2)cs1 [dihydrochloride crystal, (R)-2-(2-aminothiazol-4-yl)-4′-[2-[(2-hydroxy-2-phenylethyl)amino]ethyl]-acetanilide dihydrochloride, reference compound] | – | – | –
– | – | – | – | – | – | – | – | – | – | not more than 0.2% | – | – | – | Nc1nc(CC(=O)Nc2ccc(CCNC[C@H](O)c3ccccc3)cc2)cs1 [α-form crystal, (R)-2-(2-aminothiazol-4-yl)-4′-[2-[(2-hydroxy-2-phenylethyl)amino]ethyl]acetanilide] | not exhibiting hygroscopicity; also recorded: does not exhibit hygroscopicity; also recorded: did not exhibit hygroscopicity | stable; also recorded: excellent in stability | not more than 3.5 mg/kg/day
– | – | – | – | – | – | – | – | – | – | – | about 20% | about 3% | high solubility | Nc1nc(CC(=O)Nc2ccc(CCNC[C@H](O)c3ccccc3)cc2)cs1 [β-form crystal, (R)-2-(2-aminothiazol-4-yl)-4′-[2-[(2-hydroxy-2-phenylethyl)amino]ethyl]acetanilide] | weak hygroscopicity | – | –
